# Measured values from patent US20040175448A1, “Pharmaceutical compositions” (Mars, Incorporated, priority 1994, published 2004).
# Test: Rancimat oxidative stability test of peanut oil
# Conditions: Rancimat 100° C., 20 cc/min air, average of duplicate
# Description: The procedures described in Examples 1, 2 and 3 were used to prepare cocoa extracts which were manipulated further to produce two fractions from gel permeation chromatography. These two fractions are actually combined fractions A through C, and D and E (See FIG. 1) whose antioxidant properties were compared against the synthetic antioxidants BHA and BHT.
# Peanut Oil was pressed from unroasted peanuts after the skins were removed. Each test compound was spiked into the oil at two levels about 100 ppm and about 20 ppm, with the actual levels given in Table 7.50 μL of methanol solubilized antioxidant was added to each sample to aid in dispersion of the antioxidant. A control sample was prepared with 50 μL of methanol containing no antioxidant.
# The samples were evaluated in duplicate, for oxidative stability using the Rancimat stability test at 100° C. and 20 cc/min of air. Experimental parameters were chosen to match those used with the Active Oxygen Method (AOM) or Swift Stability Test (Van Oosten et al., 1981). Results are reported in Table 8 as hours required to reach a peroxide level of 100 meq.
# [1] = 20 ppm (actual 20-24 ppm, Table 7)
# [2] = 100 ppm (actual 100-120 ppm, Table 7)
Compound,Oxidative stability of peanut oil: hours required to reach a peroxide level of 100 meq [1] [h],Oxidative stability of peanut oil: hours required to reach a peroxide level of 100 meq [2] [h]
"COc1ccc(O)c(C(C)(C)C)c1 [BHA, Butylated Hydroxyanisole]",13.5 ± 2.1,14.0 ± 1.4
"Cc1cc(C(C)(C)C)c(O)c(C(C)(C)C)c1 [BHT, Butylated Hydroxytoluene]",16.5 ± 2.1,12.5 ± 2.1
